According to BindingDB's records for doi:10.1016/j.bioorg.2016.02.009 (Tianjin University of Science and Technology, 2016):

Molecular target: Isoform 2 of Hepatocyte growth factor receptor (2) (Homo sapiens, UniProt P08581)
Assay: c-Met Z-LYTE Assay
Details: pH 7; 25 °C
Description: The c-Met kinase activity of five target compounds and three positive compounds were evaluated using standard Z-LYTE Assays (fluorescence resonance energy transfer, FRET). The test compounds or reference controls were dissolved indimethyl sulfoxide (DMSO) as stock solution. […] 5 µL of the detectionreagents A (Invitrogen) was added at final concentrations of 64-fold dilution. The plates were incubated at room temperature for 60 min and then read in the Envision plate reader (PerkinElmer).

Isoform 2 of Hepatocyte growth factor receptor (2), sequence (P08581 as listed by the source): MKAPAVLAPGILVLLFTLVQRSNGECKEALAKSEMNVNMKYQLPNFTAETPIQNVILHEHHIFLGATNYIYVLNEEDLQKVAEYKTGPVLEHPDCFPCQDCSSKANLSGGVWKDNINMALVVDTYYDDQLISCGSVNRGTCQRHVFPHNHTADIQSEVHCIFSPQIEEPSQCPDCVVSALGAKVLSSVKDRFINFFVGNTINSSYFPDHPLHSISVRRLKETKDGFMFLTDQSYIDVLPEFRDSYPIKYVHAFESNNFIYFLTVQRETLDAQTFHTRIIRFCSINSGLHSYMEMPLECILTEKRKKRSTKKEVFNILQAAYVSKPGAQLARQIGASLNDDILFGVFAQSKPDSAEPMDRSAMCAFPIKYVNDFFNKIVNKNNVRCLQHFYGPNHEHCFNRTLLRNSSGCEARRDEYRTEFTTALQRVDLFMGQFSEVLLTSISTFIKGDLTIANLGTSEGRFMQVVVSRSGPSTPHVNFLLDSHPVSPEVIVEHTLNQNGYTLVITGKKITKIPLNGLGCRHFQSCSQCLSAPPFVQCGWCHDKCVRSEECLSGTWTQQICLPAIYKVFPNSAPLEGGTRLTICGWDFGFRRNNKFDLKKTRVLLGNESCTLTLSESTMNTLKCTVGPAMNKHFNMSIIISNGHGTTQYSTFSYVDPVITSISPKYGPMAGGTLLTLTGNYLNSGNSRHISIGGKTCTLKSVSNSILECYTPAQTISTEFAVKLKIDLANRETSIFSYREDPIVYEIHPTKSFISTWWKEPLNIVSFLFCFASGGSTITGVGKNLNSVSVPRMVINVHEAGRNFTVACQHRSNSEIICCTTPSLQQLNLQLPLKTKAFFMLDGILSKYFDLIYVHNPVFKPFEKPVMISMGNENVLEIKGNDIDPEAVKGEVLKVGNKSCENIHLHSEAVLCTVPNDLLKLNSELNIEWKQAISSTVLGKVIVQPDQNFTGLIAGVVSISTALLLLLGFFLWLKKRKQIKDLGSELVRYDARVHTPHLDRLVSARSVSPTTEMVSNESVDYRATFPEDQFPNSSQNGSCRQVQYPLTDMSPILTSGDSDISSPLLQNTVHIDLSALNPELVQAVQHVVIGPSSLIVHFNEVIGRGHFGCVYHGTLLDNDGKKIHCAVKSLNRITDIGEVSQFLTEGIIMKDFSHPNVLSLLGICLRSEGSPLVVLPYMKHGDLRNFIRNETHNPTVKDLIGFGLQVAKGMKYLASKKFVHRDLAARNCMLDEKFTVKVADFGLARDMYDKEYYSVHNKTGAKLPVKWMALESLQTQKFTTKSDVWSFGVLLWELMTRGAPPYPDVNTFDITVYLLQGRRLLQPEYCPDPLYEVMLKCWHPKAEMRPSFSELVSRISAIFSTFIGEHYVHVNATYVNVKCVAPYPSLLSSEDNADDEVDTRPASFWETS

Row | SMILES | IC50 [µM]
1 | O=C(NCc1ccc(F)cc1)Nc1ccc(Oc2ccnc3[nH]ccc23)c(F)c1 [3-(3-fluoro-4-{1H-pyrrolo[2,3-b]pyridin-4-yloxy}phenyl)-1-[(4-fluorophenyl)methyl]urea (2)] | 0.011
2 | c1ccc(-c2cnc3nnc(C4(c5ccc6ncccc6c5)CC4)n3n2)cc1 [6-(1-{6-phenyl-[1,2,4]triazolo[4,3-b][1,2,4]triazin-3-yl}cyclopropyl)quinoline (5)] | 0.013
3 | CC(Sc1cc(-c2cnn(C3CCNCC3)c2)cnc1N)c1c(Cl)ccc(F)c1Cl (centres undefined) [3-{[1-(2,6-dichloro-3-fluorophenyl)ethyl]sulfanyl}-5-[1-(piperidin-4-yl)-1H-pyrazol-4-yl]pyridin-2-amine (11b)] | 0.0512
4 | O=C(NCc1ccc(F)cc1)Nc1ccc(Oc2ccnc3[nH]c(-c4cccnc4)cc23)c(F)c1 [3-(3-fluoro-4-{[2-(pyridin-3-yl)-1H-pyrrolo[2,3-b]pyridin-4-yl]oxy}phenyl)-1-[(4-fluorophenyl)methyl]urea (2a)] | 0.002
5 | CC(c1c(Cl)ccc(F)c1Cl)c1c[nH]c2ncc(-c3cnn(C4CCNCC4)c3)cc12 (centres undefined) [4-(4-{3-[1-(2,6-dichloro-3-fluorophenyl)ethyl]-1H-pyrrolo[2,3-b]pyridin-5-yl}-1H-pyrazol-1-yl)piperidine (1)] | < 0.1
6 | Fc1ccc(Cl)c(C2(c3n[nH]c4ncc(-c5cnn(C6CCNCC6)c5)cc34)CC2)c1Cl [3-(1-(2,6-dichloro-3-fluorophenyl)cyclopropyl)-5-(1-(piperidin-4-yl)-1H-pyrazol-4-yl)-1H-pyrazolo[3,4-b]pyridine (10)] | 0.0474
7 | Fc1ccc(Cl)c(Sc2n[nH]c3ncc(-c4cnn(C5CCNCC5)c4)cc23)c1Cl [3-((2,6-dichloro-3-fluorophenyl)thio)-5-(1-(piperidin-4-yl)-1H-pyrazol-4-yl)-1H-pyrazolo[3,4-b]pyridine (9)] | 0.0228
8 | CC(c1c(Cl)ccc(F)c1Cl)c1c(Cl)[nH]c2ncc(-c3cnn(C4CCNCC4)c3)cc12 (centres undefined) [4-(4-{2-chloro-3-[1-(2,6-dichloro-3-fluorophenyl)ethyl]-1H-pyrrolo[2,3-b]pyridin-5-yl}-1H-pyrazol-1-yl)piperidine (7)] | 0.982
9 | Cc1[nH]c2ncc(-c3cnn(C4CCNCC4)c3)cc2c1C(C)c1c(Cl)ccc(F)c1Cl (centres undefined) [3-(1-(2,6-dichloro-3-fluorophenyl)ethyl)-2-methyl-5-(1-(piperidin-4-yl)-1H-pyrazol-4-yl)-1H-pyrrolo[2,3-b]pyridine (6)] | 0.286
